Reference: ChEMBL document CHEMBL3817743, “Potent and Selective Human Neuronal Nitric Oxide Synthase Inhibition by Optimization of the 2-Aminopyridine-Based Scaffold with a Pyridine Linker” (J Med Chem, 2016)
pKi: −log10 of the molar value.

Key:
[1] = target: Nitric oxide synthase 1 (Rattus norvegicus, UniProt P29476); assay: Inhibition of rat recombinant nNOS expressed in Escherichia coli using L-arginine as substrate assessed as reduction in NO production measured for 6 mins in presence of tetrahydrobiopterin by hemoglobin capture assay
[2] = target: T1, Nitric oxide synthase, inducible (Mus musculus, UniProt P29477); assay: Inhibition of recombinant mouse macrophage iNOS expressed in Escherichia coli using L-arginine as substrate assessed as reduction in NO production measured for 6 mins by hemoglobin capture assay
T1 sequence (P29477 whole entry): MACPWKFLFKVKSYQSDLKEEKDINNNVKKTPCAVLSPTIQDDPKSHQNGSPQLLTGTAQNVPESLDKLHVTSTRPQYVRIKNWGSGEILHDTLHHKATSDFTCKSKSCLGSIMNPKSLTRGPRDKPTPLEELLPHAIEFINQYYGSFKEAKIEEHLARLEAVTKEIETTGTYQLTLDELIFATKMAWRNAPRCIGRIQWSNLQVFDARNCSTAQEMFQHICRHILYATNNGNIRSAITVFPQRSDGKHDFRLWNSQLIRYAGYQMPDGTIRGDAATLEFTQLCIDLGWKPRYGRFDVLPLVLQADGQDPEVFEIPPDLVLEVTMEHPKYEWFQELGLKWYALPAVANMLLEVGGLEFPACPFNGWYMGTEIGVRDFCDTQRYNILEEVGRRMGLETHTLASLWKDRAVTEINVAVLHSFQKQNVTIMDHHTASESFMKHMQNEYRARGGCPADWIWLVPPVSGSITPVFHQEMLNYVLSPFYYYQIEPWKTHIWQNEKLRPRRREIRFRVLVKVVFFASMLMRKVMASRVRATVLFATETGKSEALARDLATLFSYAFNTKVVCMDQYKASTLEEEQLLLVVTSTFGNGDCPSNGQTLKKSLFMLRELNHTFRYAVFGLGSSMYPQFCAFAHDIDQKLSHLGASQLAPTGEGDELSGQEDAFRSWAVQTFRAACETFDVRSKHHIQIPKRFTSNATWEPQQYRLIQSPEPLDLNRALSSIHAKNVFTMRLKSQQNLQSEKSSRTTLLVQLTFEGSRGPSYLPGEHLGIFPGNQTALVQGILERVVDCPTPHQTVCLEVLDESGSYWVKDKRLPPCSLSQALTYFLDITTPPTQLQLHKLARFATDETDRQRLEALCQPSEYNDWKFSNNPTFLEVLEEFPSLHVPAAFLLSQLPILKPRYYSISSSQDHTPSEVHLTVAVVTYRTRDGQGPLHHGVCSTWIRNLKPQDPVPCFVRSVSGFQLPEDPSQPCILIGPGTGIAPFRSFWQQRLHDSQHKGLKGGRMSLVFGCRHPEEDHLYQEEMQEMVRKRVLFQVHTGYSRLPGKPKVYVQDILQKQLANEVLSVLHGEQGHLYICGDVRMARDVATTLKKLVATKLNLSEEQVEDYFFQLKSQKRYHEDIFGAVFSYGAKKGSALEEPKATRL

[3] = target: T2, Cytochrome P450 1A2 (Homo sapiens, UniProt P05177); assay: Inhibition of CYP1A2 in human liver microsomes using phenacetin as substrate at 10 uM preincubated for 5 mins followed by NADPH addition measured after 10 mins by LC-MS/MS analysis relative to control; format: ADME
T2 sequence (P05177 whole entry): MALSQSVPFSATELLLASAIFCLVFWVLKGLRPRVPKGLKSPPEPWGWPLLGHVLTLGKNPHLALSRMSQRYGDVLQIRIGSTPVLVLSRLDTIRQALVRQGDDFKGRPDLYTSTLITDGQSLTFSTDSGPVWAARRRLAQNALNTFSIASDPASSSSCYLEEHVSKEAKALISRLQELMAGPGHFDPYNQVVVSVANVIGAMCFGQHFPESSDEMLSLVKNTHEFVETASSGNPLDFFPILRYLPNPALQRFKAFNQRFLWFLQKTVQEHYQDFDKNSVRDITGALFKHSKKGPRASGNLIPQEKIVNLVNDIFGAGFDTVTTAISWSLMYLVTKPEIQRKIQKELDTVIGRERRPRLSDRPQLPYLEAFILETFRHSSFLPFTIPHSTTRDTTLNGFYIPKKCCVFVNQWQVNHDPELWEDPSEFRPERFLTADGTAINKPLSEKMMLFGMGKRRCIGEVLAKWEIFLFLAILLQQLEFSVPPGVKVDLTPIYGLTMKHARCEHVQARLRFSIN

[4] = target: Cytochrome P450 2C9 (Homo sapiens, UniProt P11712); assay: Inhibition of CYP2C9 in human liver microsomes using diclofenac as substrate at 10 uM preincubated for 5 mins followed by NADPH addition measured after 10 mins by LC-MS/MS analysis relative to control; format: ADME
[5] = target: Cytochrome P450 2D6 (Homo sapiens, UniProt P10635); assay: Inhibition of CYP2D6 in human liver microsomes using bufuralol as substrate at 10 uM preincubated for 5 mins followed by NADPH addition measured after 10 mins by LC-MS/MS analysis relative to control; format: ADME
[6] = Drug metabolism in human liver microsomes at 1 uM incubated for 60 mins by LC-MS/MS analysis; format: ADME; conditions: read-out: Drug metabolism
[7] = Drug metabolism in human liver microsomes at 1 uM preincubated for 5 mins followed by NADPH addition measured after […] mins by LC-MS/MS analysis; format: ADME; conditions: read-out: Drug metabolism
[8] = Permeability from apical to basolateral side in human Caco2 cells at 10 uM after 2 hrs by LC-MS/MS analysis; format: ADME, cell-based; conditions: caco-2, 2 h

Nitric oxide synthase 1, sequence (P29476 whole entry): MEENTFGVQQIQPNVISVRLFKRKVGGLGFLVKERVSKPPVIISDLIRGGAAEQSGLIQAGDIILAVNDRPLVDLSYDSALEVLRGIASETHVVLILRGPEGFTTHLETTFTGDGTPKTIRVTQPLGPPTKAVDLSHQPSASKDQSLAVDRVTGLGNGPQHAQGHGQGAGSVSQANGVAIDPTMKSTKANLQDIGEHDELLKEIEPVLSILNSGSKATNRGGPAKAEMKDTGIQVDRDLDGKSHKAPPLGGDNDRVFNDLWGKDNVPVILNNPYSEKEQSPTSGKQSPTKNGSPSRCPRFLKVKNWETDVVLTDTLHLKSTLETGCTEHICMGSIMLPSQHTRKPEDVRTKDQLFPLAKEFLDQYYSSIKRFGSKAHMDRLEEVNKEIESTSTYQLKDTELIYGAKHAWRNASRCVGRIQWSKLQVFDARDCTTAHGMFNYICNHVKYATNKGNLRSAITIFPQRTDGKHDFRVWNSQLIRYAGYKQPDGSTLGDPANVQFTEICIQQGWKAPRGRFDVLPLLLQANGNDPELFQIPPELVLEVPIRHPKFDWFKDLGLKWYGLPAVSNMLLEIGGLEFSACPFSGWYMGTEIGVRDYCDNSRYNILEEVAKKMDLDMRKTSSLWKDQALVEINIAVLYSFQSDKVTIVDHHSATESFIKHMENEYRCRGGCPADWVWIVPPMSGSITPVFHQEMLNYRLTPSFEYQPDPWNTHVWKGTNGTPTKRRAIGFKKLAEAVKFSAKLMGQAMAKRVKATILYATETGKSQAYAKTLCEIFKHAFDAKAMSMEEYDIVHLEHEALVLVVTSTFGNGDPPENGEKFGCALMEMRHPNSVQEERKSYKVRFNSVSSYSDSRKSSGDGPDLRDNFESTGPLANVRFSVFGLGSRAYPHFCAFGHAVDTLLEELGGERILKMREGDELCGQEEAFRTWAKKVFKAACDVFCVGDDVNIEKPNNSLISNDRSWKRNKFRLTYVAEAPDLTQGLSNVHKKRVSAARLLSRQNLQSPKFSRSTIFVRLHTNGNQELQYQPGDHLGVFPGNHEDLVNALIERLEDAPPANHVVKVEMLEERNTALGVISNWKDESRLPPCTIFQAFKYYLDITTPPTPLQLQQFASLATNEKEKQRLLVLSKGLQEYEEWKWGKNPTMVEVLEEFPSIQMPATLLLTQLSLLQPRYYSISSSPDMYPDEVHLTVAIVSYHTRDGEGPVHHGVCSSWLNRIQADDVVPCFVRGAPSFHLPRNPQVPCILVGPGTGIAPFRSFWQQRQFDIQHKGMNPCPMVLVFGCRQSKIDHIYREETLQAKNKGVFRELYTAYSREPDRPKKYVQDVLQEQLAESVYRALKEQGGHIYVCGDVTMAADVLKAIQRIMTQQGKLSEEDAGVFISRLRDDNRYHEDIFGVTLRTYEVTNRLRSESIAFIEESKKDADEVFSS
Cytochrome P450 2C9, sequence (P11712 whole entry): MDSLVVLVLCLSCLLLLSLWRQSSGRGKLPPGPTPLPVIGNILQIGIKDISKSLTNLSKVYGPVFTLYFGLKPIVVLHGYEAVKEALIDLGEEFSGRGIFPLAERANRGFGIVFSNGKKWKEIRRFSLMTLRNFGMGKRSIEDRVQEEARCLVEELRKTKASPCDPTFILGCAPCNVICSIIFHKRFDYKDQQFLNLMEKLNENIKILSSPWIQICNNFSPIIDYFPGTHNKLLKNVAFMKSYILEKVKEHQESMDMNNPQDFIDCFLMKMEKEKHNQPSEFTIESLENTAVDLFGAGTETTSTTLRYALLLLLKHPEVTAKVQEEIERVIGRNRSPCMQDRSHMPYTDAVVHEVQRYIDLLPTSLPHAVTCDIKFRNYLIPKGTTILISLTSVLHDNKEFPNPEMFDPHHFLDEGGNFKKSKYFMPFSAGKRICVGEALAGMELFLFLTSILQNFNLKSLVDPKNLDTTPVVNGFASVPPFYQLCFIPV
Cytochrome P450 2D6, sequence (P10635 whole entry): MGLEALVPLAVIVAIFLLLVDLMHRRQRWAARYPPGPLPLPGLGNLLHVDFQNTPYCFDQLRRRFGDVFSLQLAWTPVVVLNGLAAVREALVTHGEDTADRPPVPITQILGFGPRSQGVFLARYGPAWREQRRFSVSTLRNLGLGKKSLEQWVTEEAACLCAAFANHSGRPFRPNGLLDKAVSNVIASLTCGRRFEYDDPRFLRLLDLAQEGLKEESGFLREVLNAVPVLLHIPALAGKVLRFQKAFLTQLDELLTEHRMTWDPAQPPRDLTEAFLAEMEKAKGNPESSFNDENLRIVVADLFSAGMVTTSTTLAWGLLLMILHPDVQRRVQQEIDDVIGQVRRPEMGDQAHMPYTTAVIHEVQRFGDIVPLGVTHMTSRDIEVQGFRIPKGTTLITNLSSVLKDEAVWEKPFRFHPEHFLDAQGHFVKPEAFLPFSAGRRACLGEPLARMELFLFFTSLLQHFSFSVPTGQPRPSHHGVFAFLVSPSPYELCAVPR

SMILES	pKi [1]	pKi [2]	inhibition (INH) [3]	inhibition (INH) [4]	inhibition (INH) [5]	metabolised at 1 h, 1 µM [6]	metabolised at […], 1 µM [7]	permeability [8]
Cc1cc(N)nc(CCc2cncc(N3CCCCC3)c2)c1	5.73	5.25						
CNCCCc1cncc(CCc2cc(C)cc(N)n2)c1			9%	0%	6%	23%	23%	impermeable
Cc1cc(N)nc(CCc2cccnc2)c1	6.15	5.56						
